Laboratory results taken from publication PMC6915728 (Nature Communications, 2019).
Read-outs that look alike come from different tables or passages of the source.

Legend:
[1] = tested on: E. coli K12 BW25113 carrying the pooled ASKA overexpression plasmid library (~4400 ORFs); assay: Chemical-genetic profiling: pooled competitive growth of the ASKA gene-overexpression library with and without AMP, deep sequencing readout; assay type: cell-based, Escherichia coli
Text: We generated chemical-genetic interaction profiles for a diverse set of AMPs (Table 1) by screening them against a comprehensive library of gene overexpressions in E. coli[21]. Increasing gene dosage is a widely applied approach to reveal the targets of small-molecule antibiotics[22],[23]. It also informs on the ‘latent resistome’, that is, the collection of genes where a change from native expression level enhances resistance to a particular drug[24]. We applied a sensitive competition assay by monitoring growth of a pooled plasmid library, overexpressing all the E. coli ORFs (Fig. 1a), as we reported earlier. Specifically, E. coli cells carrying the pooled plasmid collection were grown in the presence or absence of one of the 15 AMPs tested, at a sub-inhibitory concentration that increased the doubling time of the whole population by 2-fold. Following 12 generations of growth, the plasmid pool was isolated from each selection and the relative abundance of each plasmid was determined by a deep sequencing readout (see Methods).
We carried out chemical-genetic profiling to determine the impact of the overexpression of each E. coli ORF on bacterial susceptibility to each of the 15 different AMPs. To this end, we used the complete set of E. coli K-12 Open Reading Frame Archive (ASKA) plasmid library (GFP minus) where each E. coli ORF is cloned into a high copy number expression plasmid (pCA24N-ORFGFP(-)). Prior to screening, the ASKA library was grown in the original host strain E. coli K-12 AG1 in 96-well plates (growth conditions: 37 °C, 280 rpm, LB medium). An equal aliquot of each member of the ASKA library (each well of the 96-well plates) was pooled together and the plasmid DNA (pCA24N-ORF-GFP(-)) was isolated and transformed into E. coli K12 BW25113 strain[51]. To obtain a negative control strain not having any overexpressed gene, the plasmid without a cloned ORF (pCA24N-noORF) was also transformed into the same E. coli strain. Then, on the pooled collection, we applied a previously reported competitive growth assay. Specifically, the pooled overexpression library and the control strain were grown in parallel in MS medium supplemented with 20 µg per ml chloramphenicol and the overexpression was induced by 100 µM isopropyl-ß-D-thiogalactopyranoside (IPTG). After 1 h induction, ~5 × 10^5 bacterial cells from the library were inoculated into each well of a 96-well microtiter plate containing a concentration gradient of an AMP in the MS medium supplemented with 20 µg per ml chloramphenicol and 100 µM IPTG. At the same time, both the library and the control strain with the empty plasmid were grown in the absence of any AMPs. We took special care to grow both of these samples in the exact same conditions as the samples in the presence of AMPs. Bacterial growth was monitored in a microplate reader (Biotek Synergy 2) for 24 h. At the end of the exponential growth phase, we selected those wells in which the doubling time of the cell population was increased by 2-fold. Then, from these wells, cells were split into four equal proportion and each was transferred into 20 mL of MS medium supplemented with the corresponding AMP in four different concentrations in the range that slowed down growth by two-fold in the microtitre plate. […] The rationale for this 2-step process was to maintain competition in exponential phase for 12 generations of growth, efficiently control the growth rate in a reproducible manner and obtain the plasmid pool with standard DNA isolation protocol (innuPREP plasmid mini Kit, Analytik Jena AG) in a yield that is enough for the downstream analysis. The cultures were vigorously shaken along the entire protocol to make sure that the cultures are completely homogeneous and therefore biasing interactions between clones (such as trans-resistance) was minimized. […]

[2] = tested on: E. coli gene overexpression; conditions: cited from earlier work
Text: Supplement 41467_2019_13618_MOESM1_ESM.docx, table 1: Supplementary Table 1. Collected examples of E. coli gene overexpression from the literature as a confirmation of our chemical-genetic screen results. | column: Overexpression phenotype

[3] = tested on: E. coli BW25113 overexpression strains (ASKA plasmids); assay: Minimum inhibitory concentration (MIC), serial broth dilution, single-gene overexpression strains vs empty-vector control; assay type: cell-based, Escherichia coli; conditions: for Average relative change in MIC: mlaD overexpression strain relative to control (wild-type+empty vector), 3 replicates each, from optical density values of serial dilution plates, AMP in µg ml-1; for Relative MIC: broth dilution, MS medium, 100 µM IPTG, 30 °C, 20-24 h, OD600, 3 replicates
Method in brief: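 E. coli overexpression strains grown in MS medium with chloramphenicol, induced with 100 µM IPTG for 1 h at 30 °C, then about half-million cells inoculated into 12-step AMP dilutions (typically 1.2-fold steps). OD600 read after 20–24 h at 30 °C with shaking; triplicate strains compared with empty-vector control.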

[4] = gene marA overexpressed, ref 3 (Warner & Levy 2010)
[5] = overexpression strain gadW, MIC of overexpression strain / MIC of empty-plasmid control
[6] = overexpression strain hyfA, MIC of overexpression strain / MIC of empty-plasmid control
[7] = overexpression strain lptB, MIC of overexpression strain / MIC of empty-plasmid control
[8] = overexpression strain mlaC, MIC of overexpression strain / MIC of empty-plasmid control
[9] = overexpression strain mlaD, MIC of the overexpression strain / MIC of the control strain (wild-type carrying the empty plasmid)
[10] = overexpression strain ytjB, MIC of overexpression strain / MIC of empty-plasmid control
[11] = overexpression strain mzrA, MIC of overexpression strain / MIC of empty-plasmid control
[12] = overexpression strain nikB, MIC of overexpression strain / MIC of empty-plasmid control
[13] = overexpression strain murA, MIC of overexpression strain / MIC of empty-plasmid control
[14] = overexpression strain narY, MIC of overexpression strain / MIC of empty-plasmid control
[15] = overexpression strain rpoH, MIC of overexpression strain / MIC of empty-plasmid control
[16] = overexpression strain yhbJ, MIC of overexpression strain / MIC of empty-plasmid control
[17] = overexpression strain yiaJ, MIC of overexpression strain / MIC of empty-plasmid control
[18] = overexpression strain uhpC, MIC of overexpression strain / MIC of empty-plasmid control

Sequence | Average relative change in MIC [3] | Relative MIC [3, 5] | Relative MIC [3, 6] | Relative MIC [3, 7] | Relative MIC [3, 8] | Relative MIC [3, 9] | Relative MIC [3, 10] | Relative MIC [3, 11] | Relative MIC [3, 12] | Relative MIC [3, 13] | Relative MIC [3, 15] | also measured
LLGDFFRKSKEKIGKEFKRIVQRIKDFLRNLVPRTES [LL37, LL-37 human cathelicidin, human host-defense peptide; disrupts cell membrane; cluster C2] | 2.42 | 0.79 | 0.74 | 1.2 | 1.43 | 2.5 | 1.2 |  |  |  |  | Overexpression phenotype, Chemical-genetic profile ([1]; gene ompT, whether the literature phenotype was captured by the overexpression screen): Confirmed; Overexpression phenotype, Literature [2, 4]: Resistance^3; Overexpression phenotype, Literature ([2]; gene ompT overexpressed, ref 4 (Stumpe et al. 1998)): Resistance^4; Relative MIC ([3]; overexpression strain yijE, MIC of overexpression strain / MIC of empty-plasmid control): 1.2
RWCFRVCYRGICYRKCR [TPII, Tachyplesin II, antimicrobial peptide from Japanese horseshoe crab; disrupts cell membrane; cluster C1] | 1.47 | 1 |  |  | 1 | 1.47 |  | 1.27 | 0.8 |  |  | 
GIGKFLKKAKKFGKAFVKILKK [PEX, Pexiganan, synthetic Magainin derivative; disrupts cell membrane; cluster C2] | 1.71 | 0.7 | 0.7 | 1.3 | 1.85 | 1.85 |  | 1 |  | 1.44 | 1.44 | Relative MIC [3, 14]: 0.8
RFRPPIRRPPIRPPFYPPFRPPIRPPIFPPIRPPFRPPLGPFP [BAC5, Bactenecin 5, antimicrobial peptide from bovine neutrophils; cluster C4] | 0.74 | 1.3 |  | 0.67 | 1 | 0.74 |  |  |  | 0.8 | 0.8 | Overexpression phenotype, Chemical-genetic profile ([1]; gene ptrB, whether the literature phenotype was captured by the overexpression screen (9 out of 13 captured)): Confirmed; Chemical-genetic score ([1]; overexpressed gene mlaD, read numbers in presence vs absence of AMP, sub-inhibitory dose doubling the doubling time, 12 generations, average of biological replicates): -2.101 log2 fold change; Overexpression phenotype, Literature ([2]; gene ptrB overexpressed, ref 2 (Mattiuzzo et al. 2014)): Resistance^2; Relative MIC ([3]; overexpression strain mhpA, MIC of overexpression strain / MIC of empty-plasmid control): 0.79; Relative MIC [3, 16]: 0.8; Relative MIC [3, 17]: 0.7
KTKKKFLKKT [PXB, Polymyxin B, from Bacillus polymyxa, purchased from Sigma-Aldrich; disrupts cell membrane; cluster C1] |  | 0.7 |  | 0.7 |  |  |  | 0.66 | 1 |  |  | Overexpression phenotype, Chemical-genetic profile ([1]; gene eptA, whether the literature phenotype was captured by the overexpression screen): Confirmed; Overexpression phenotype, Chemical-genetic profile ([1]; gene marA, whether the literature phenotype was captured by the overexpression screen): Confirmed; Overexpression phenotype, Literature ([2]; gene arnT overexpressed, ref 5 (Trent et al. 2001)): Resistance^5; Overexpression phenotype, Literature ([2]; gene eptA overexpressed, ref 7 (Olaitan et al. 2014)): Resistance^7; Overexpression phenotype, Literature [2, 4]: Resistance^3; Overexpression phenotype, Literature ([2]; gene pmrD overexpressed, ref 8 (Roland et al. 1994)): Resistance^8
GLRKRLRKFRNKIKEKLKKIGQKIQGFVPKLAPRTDY [CAP18, antimicrobial peptide, source rabbit; disrupts cell membrane; cluster C3] | 1.86 |  | 0.72 |  | 2.1 | 2.42 | 1.72 |  |  | >2.25 | >2.25 | Overexpression phenotype, Chemical-genetic profile ([1]; gene waaY, whether the literature phenotype was captured by the overexpression screen): Confirmed; Overexpression phenotype, Literature ([2]; gene waaY overexpressed, ref 10 (Lázár et al. 2018)): Sensitivity^10; Relative MIC [3, 14]: 0.76; Relative MIC [3, 18]: 1.66; Relative MIC [3, 16]: >2.25
ILPWKWPWWPWRR [IND, Indolicidin, antimicrobial peptide from bovine neutrophils; cluster C3] | 0.82 |  | >1.2 |  |  | 0.78 | 0.8 | 0.62 | 0.76 | 0.8 | 0.64 | Relative MIC ([3]; overexpression strain cvpA, MIC of overexpression strain / MIC of empty-plasmid control): 0.76; Relative MIC ([3]; overexpression strain ptsN, MIC of overexpression strain / MIC of empty-plasmid control): 0.76; Relative MIC [3, 18]: 0.8; Relative MIC [3, 17]: 0.8
